In brackets after ≈: the same amount, converted by molar mass. Several values for one entry are separate records, joined by “and”; a condition that tells them apart may be missing. Equal entries are not always repeated. Entries after “also recorded” stand apart in the source; their conditions may differ. Where two headings read alike, the source gives them in different places.
Experiments:
E. coli (EC) ATCC 25922 [1] = assay: Agar well diffusion, E. coli; type: cell-based, Escherichia coli; conditions: average of triplicate
Method: (§1) The five newly synthesized compounds were first qualitatively evaluated for antibacterial and antifungal activities using Muller-Hinton agar medium (MHA) through the agar well diffusion technique as previously described (Balouiri et al. [2016]). The bacterial test was performed against the following standard strains: S. aureus (SA) ATCC 25913, E. coli (EC) ATCC 25922, P. aeruginosa (PA) ATCC 27853, K. pneumoniae (KP) ATCC 49619. The antifungal activity was evaluated against C. albicans (CA) ATCC 14053 (CLSI [2021]). A bacterial culture and preparation of wells on a seeded MHA plate was performed as previously described (Isleem et al. [2025]). The experiment was done in triplicate according to CLSI guidelines (CLSI [2021]). Secondly, the compounds that gave positive inhibition zones were selected for MIC determination using broth microdilution assay according to CLSI guidelines (CLSI [2021]). […]

[2] = system: S. aureus (SA) ATCC 25913; assay: Agar well diffusion, S. aureus; type: cell-based, Staphylococcus aureus; conditions: average of triplicate
Method: as §1

[3] = system: P. aeruginosa (PA) ATCC 27853; assay: Agar well diffusion, P. aeruginosa; type: cell-based, Pseudomonas aeruginosa; conditions: average of triplicate
Method: as §1

[4] = system: C. albicans (CA) ATCC 14053; assay: Agar well diffusion, C. albicans; type: cell-based, Candida albicans; conditions: average of triplicate
Method: as §1

[5] = system: MDA MB231 (triple negative human breast cancer); assay: MTT cytotoxicity assay, MDA MB231; type: cell-based; conditions: MDA-MB-231, 96 h continuous exposure, read-out: In vitro antitumor activities (IC50) MDA MB231 (Breast)
Description: (§2) Four immortalized human cancer cell lines served as a panel for testing the compounds' cytotoxicity. The STAT3-null A4 cell line (with homozygously deleted STAT3) is a sub-line of the DLD1 colorectal carcinoma cell line and was a gift from Professor David Thurston, Emeritus Professor of Drug Discovery, King’s College London. The American Type Culture Collection and LGC provided the cell lines for HeLa (human cervical cancer), MIA-PaCa-2 (human pancreatic adenocarcinoma), MDA MB231 (triple negative human breast cancer), and NCI H1975 (human non-small cell lung cancer). Every cell line was kept in monolayer culture in 75 cm^2 flasks (TPP, Switzerland) at 37 °C in a humidified environment containing 5% CO2. The HeLa line was kept in Dulbecco's Modified Eagles Media (DMEM; Invitrogen), which was enhanced with L-glutamine (2 mM; Invitrogen), non-essential amino acids (1 x; Invitrogen), 10% v/v fetal bovine serum, and Penicillin–Streptomycin (1% v/v; Invitrogen).
(§3) Dulbecco's MEM was utilized for MIA PaCa2, and it was enhanced with fetal calf serum (10%, Biosera UK) and L-glutamine (2 mM; Invitrogen). The following materials were employed for sub-culturing: L-glutamine (2 mM; Invitrogen), fetal bovine serum (10%, Biosera UK), high glucose DMEM (4.5 g/l; Invitrogen), Penicillin–Streptomycin (1% v/v, Invitrogen), and non-essential amino acids (1x; Invitrogen). Penicillin–Streptomycin (1% v/v, Invitrogen) and fetal bovine serum (10% v/v; Invitrogen) were added to Roswell Park Memorial Institute Medium 1640 (RPMI 1640, Invitrogen) to sustain the NCI H1975 cell lines. Cells were passaged by rinsing them in PBS (GIBCO 14040, Invitrogen, UK), culturing them with trypsin (GIBCO 25300, Invitrogen, UK), and then reseeding them into new media. Cells were counted for seeding on a non-adherent suspension of cells that were rinsed in PBS, trypsinized, centrifuged at 8 °C for 5 min at 8000 rpm, and then re-suspended in new media using a Neubauer hemocytometer (Assistant, Germany) by microscopy (Nikon, USA).
(§4) Using the proper medium, the cells were cultured under standard cell culture conditions at 37 °C in a humidified atmosphere with 5% CO2. Depending on the cell line, 5,000–20,000 cells were added per well after the cell count was adjusted to 10^5 cells/mL. After a 24-h incubation period, 1 μL of the suitable inhibitor doses were applied in triplicate to the wells (Freimoser et al. [1999]). The MTT colorimetric test (3-(4,5-Dimethylthiazol-2-yl)-2,5-diphenyltetrazolium bromide) (Lancaster Synthesis Ltd, UK) was used to assess the cytotoxicity of each chemical after 96 h of continuous exposure (Freimoser et al. [1999]). Using an Envision Plate Reader from PerkinElmer, USA, spectrophotometry was used to measure absorbance at λ = 570 nm. Using the Prism Graphpad Prism® program, a dose–response analysis was used to get the IC50 values. MDA MB231; HeLa; MIA Cell lysis buffer was added to PaCa2 cells after they had been exposed to different doses of chemical 3e. The cells were then collected. Following the electrophoresis of total cell lysates on precast TGX gels, β-actin and CAXII antibodies were immunoblotted (Ghomashi et al. [2023]). Doxorubicin was used as a positive control (Ghomashi et al. [2023]).

[6] = system: S. aureus (SA) ATCC 25913; assay: Broth microdilution MIC, S. aureus; type: cell-based; conditions: Staphylococcus aureus, ATCC25913, CLSI
[7] = target: T1, carbonic anhydrase XII (CAXII) (Bos taurus, UniProt P00921); assay: Carbonic anhydrase (CAXII) inhibition, 4-nitrophenyl acetate, 96-well plate; type: biochemical, bovine
T1 construct: purified bovine erythrocyte CA-II; from tissue; host or cells: bovine erythrocytes
T1 sequence (P00921 2-260): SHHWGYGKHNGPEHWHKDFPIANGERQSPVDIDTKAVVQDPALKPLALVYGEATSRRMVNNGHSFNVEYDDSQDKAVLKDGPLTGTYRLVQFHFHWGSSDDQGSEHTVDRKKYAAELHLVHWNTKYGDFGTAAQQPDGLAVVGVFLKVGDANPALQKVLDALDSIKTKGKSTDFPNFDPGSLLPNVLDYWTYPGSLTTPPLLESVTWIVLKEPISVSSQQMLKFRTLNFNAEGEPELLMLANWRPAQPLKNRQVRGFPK

[8] = system: MIA-PaCa-2 (human pancreatic adenocarcinoma); assay: MTT cytotoxicity assay, MIA PaCa2; type: cell-based; conditions: 96 h continuous exposure, read-out: In vitro antitumor activities (IC50) MIA PaCa2 (Pancreatic)
Description: as §2, §3, §4

[9] = system: NCI H1975 (human non-small cell lung cancer); assay: MTT cytotoxicity assay, NCI H1975; type: cell-based; conditions: 96 h continuous exposure, read-out: In vitro antitumor activities (IC50) NCI H1975 (non-small cell Lung)
Description: as §2, §3, §4

E. coli (EC) ATCC 25922 [10] = assay: Broth microdilution MIC, E. coli; type: cell-based; conditions: Escherichia coli, ATCC25922, CLSI
[11] = system: STAT3-null A4 cell line (sub-line of DLD1 colorectal carcinoma); assay: MTT cytotoxicity assay, A4 control cell line; type: cell-based; conditions: Homo sapiens, DLD-1, 96 h continuous exposure, read-out: In vitro antitumor activities (IC50) A4 Cell line (Control cell line)
Description: as §2, §3, §4

[12] = system: C. albicans (CA) ATCC 14053; assay: Broth microdilution MIC, C. albicans; type: cell-based; conditions: Candida albicans, ATCC14053, CLSI
Method: as §1

[13] = system: HeLa (human cervical cancer); assay: MTT cytotoxicity assay, HeLa; type: cell-based; conditions: 96 h continuous exposure, read-out: In vitro antitumor activities (IC50) HeLa (Cervical)
Description: as §2, §3, §4

[14] = system: four tested tumor cell lines; assay: MTT cytotoxicity assay, panel of the four tumor cell lines; type: cell-based, human; conditions: for IC50: Homo sapiens, range across HeLa, MDA MB231, MIA PaCa2, NCI H1975, read-out: IC50 / concentration stopping growth, range over the four tumor cell lines
Description: as §2, §3
Using the proper medium, the cells were cultured under standard cell culture conditions at 37 °C in a humidified atmosphere with 5% CO2. Depending on the cell line, 5,000–20,000 cells were added per well after the cell count was adjusted to 10^5 cells/mL. After a 24-h incubation period, 1 μL of the suitable inhibitor doses were applied in triplicate to the wells (Freimoser et al. [1999]). The MTT colorimetric test (3-(4,5-Dimethylthiazol-2-yl)-2,5-diphenyltetrazolium bromide) (Lancaster Synthesis Ltd, UK) was used to assess the cytotoxicity of each chemical after 96 h of continuous exposure (Freimoser et al. [1999]). Using an Envision Plate Reader from PerkinElmer, USA, spectrophotometry was used to measure absorbance at λ = 570 nm. […]

[15] = system: P. aeruginosa (PA) ATCC 27853; assay: Broth microdilution MIC, P. aeruginosa; type: cell-based; conditions: Pseudomonas aeruginosa, ATCC27853, CLSI
[16] = read-out: CAXII inhibitory activity (IC50)

Structure (SMILES) | Inhibition Zone EC ATCC 25922 (E. coli (EC) ATCC 25922 [1]) [mm] | Inhibition Zone SA ATCC 25913 [2] [mm] | Inhibition Zone PA ATCC 27853 [3] [mm] | Inhibition Zone CA ATCC 14053 [4] [mm] | IC50 [5] [µM] | MIC [6] [µg/mL] | IC50 [7, 16] | IC50 [8] [µM] | IC50 [9] [µM] | MIC (E. coli (EC) ATCC 25922 [10]) [µg/mL] | IC50 [11] [µM] | MIC [12] [µg/mL] | IC50 [13] [µM] | IC50 [14] [µM] | MIC [15] [µg/mL] | IC50 ([7]; text of b65, unit printed nM, read-out: CAXII inhibition (converted)) [nM] | Anticancer activity against the four tested tumor cell lines (in words) [14]
O=C(O)c1cn(C2CC2)c2cc(N3CCNCC3)c(F)cc2c1=O [Ciprofloxacin, reference compound] | 25 | 21 | 25 |  |  |  |  |  |  |  |  |  |  |  |  |  | 
NS(=O)(=O)c1ccc(Nc2ncnc3ccc(I)cc23)cc1 [Compound 3a, 6-Iodo-4-(4-aminosulphonylphenyl-amino) quinazoline] | 10 | 14 | 0 | 10 | 12 ± 1.25 | 8 (≈ 18.8 µM) | 9510 nM | 14 ± 1.6 | 13.2 ± 1.5 | 8 (≈ 18.8 µM) | > 50 | 16 (≈ 37.5 µM) | 10.5 ± 1.6 |  |  |  | 
COc1ccc(-c2nc(Nc3ccc(S(N)(=O)=O)cc3)c3cc(I)ccc3n2)cc1 [Compound 3b, 6-Iodo-4-(4-aminosulphonylphenyl-amino)-2-(4-methoxyphenyl)-quinazoline] | 12 | 18 | 10 | 10 | 7.3 ± 0.8 | 2 (≈ 3.76 µM) | 3690 nM and 3750 nM | 7.3 ± 0.9 | 9.1 ± 1.8 | 8 (≈ 15 µM) | > 50 | 16 (≈ 30.1 µM) | 6.1 ± 0.12 | 6 to 9 | 32 (≈ 60.1 µM) |  | 
O=S(=O)(Nc1nccs1)c1ccc(Nc2nc(-c3ccccc3)nc3ccc(I)cc23)cc1 [Compound 3c, 6-Iodo-2-phenyl-4-(4-(thiazol-2-yl)aminosulphonylphenyl-amino) quinazoline] | 15 | 22 | 12 | 16 | 6.4 ± 0.9 | 1 (≈ 1.71 µM) | 3690 nM | 5.5 ± 0.8 | 8 ± 0.5 | 4 (≈ 6.83 µM) | > 50 | 4 (≈ 6.83 µM) | 4 ± 0.66 | 4 to 8 | 16 (≈ 27.3 µM) |  | 
COc1ccc(-c2nc(Nc3ccc(S(=O)(=O)Nc4nccs4)cc3)c3cc(I)ccc3n2)cc1 [Compound 3d, 6-Iodo-2-(4-methoxyphenyl)-4-(4-(thiazol-2-yl)aminosulphonylphenyl-amino)-quinazoline] | 10 | 16 | 12 | 12 | 6.4 ± 1.76 | 4 (≈ 6.5 µM) | 8190 nM | 6.1 ± 1.3 | 12.3 ± 0.9 | 32 (≈ 52 µM) | > 50 | 8 (≈ 13 µM) | 8.2 ± 2.1 |  | 32 (≈ 52 µM) | 8910 | 
COc1ccc(-c2nc(Nc3ccc(S(=O)(=O)Nc4nccs4)cc3)c3cc(I)ccc3n2)cc1OC [Compound 3e, 6-Iodo-2-(3,4-dimethoxyphenyl)-4-(4-(thiazol-2-yl)aminosulphonylphenyl-amino)-quinazoline] | 10 | 14 | 10 | 12 | > 50 | 16 (≈ 24.8 µM) | > 50000 nM | > 50 | > 50 | 32 (≈ 49.6 µM) | > 50 | 16 (≈ 24.8 µM) | > 50 |  | 32 (≈ 49.6 µM) |  | devoid of anticancer activities; also recorded: weak activity
COc1cccc2c1C(=O)c1c(O)c3c(c(O)c1C2=O)C[C@@](O)(C(=O)CO)C[C@@H]3O[C@H]1C[C@H](N)[C@H](O)[C@H](C)O1 [Doxorubicin, reference compound] |  |  |  |  | 2.7 ± 0.6 |  |  | 2.3 ± 0.6 | 2.8 ± 0.5 |  |  |  | 3.25 ± 0.5 | 2.3 to 3.25 |  |  | 
OC(Cn1cncn1)(Cn1cncn1)c1ccc(F)cc1F [Fluconazole, reference compound] |  |  |  | 20 |  |  |  |  |  |  |  | 1 (≈ 3.27 µM) |  |  |  |  | 
